Reference: the NIST ThermoML archive (doi:10.1016/j.tca.2013.03.010)

Experiments:
[1] = 101 kPa, Liquid; for viscosity: Capillary tube (Ostwald / Ubbelohde) method; for mass density: Vibrating tube method
[2] = xn = mol fraction of the nth substance listed; conditions: 101 kPa, Liquid; for viscosity: Capillary tube (Ostwald / Ubbelohde) method; for mass density: Vibrating tube method

OCCO [1,2-ethanediol]
[1]
Conditions	mass density [kg/m3]	viscosity [mPa·s]
298.15 K	–	16.87
303.15 K	1106	13.59
308.15 K	–	11.34

CC(O)CO (stereo not given) [1,2-propanediol] + OCCCO
[2], x1 = 1
Conditions	mass density [kg/m3]	viscosity [mPa·s]
298.15 K	1032.7	44.78
303.15 K	1028.8	33.75
308.15 K	1025.2	27

OCCCO [propan-1,3-diol] + OCCO
[2]
Conditions	mass density, 298.15 K [kg/m3]	mass density, 303.15 K [kg/m3]	mass density, 308.15 K [kg/m3]	viscosity, 298.15 K [mPa·s]	viscosity, 303.15 K [mPa·s]	viscosity, 308.15 K [mPa·s]
x2 = 0	1049.6	1046.2	1043.1	41.36	32.78	26.34
x2 = 0.1107	1055.3	1051.7	1048.5	39.55	31.2	24.94
x2 = 0.2024	1060.1	1056.5	1053.1	37.7	29.75	23.7
x2 = 0.3597	1069.3	1065.7	1061.9	34.33	26.96	21.43
x2 = 0.4617	1075.7	1072	1068.1	31.96	25.06	19.91
x2 = 0.551	1081.4	1077.6	1073.6	29.75	23.32	18.56
x2 = 0.6258	1086.2	1082.3	1078.3	27.76	21.77	17.39
x2 = 0.7354	1093.1	1089.2	1085.2	24.77	19.45	15.66
x2 = 0.8285	1099.1	1095.2	1091.1	22.09	17.39	14.15
x2 = 0.9105	1104.5	1100.7	1096.5	19.62	15.64	12.82

OCCO [1,2-ethanediol] + CC(O)CO
[2], x1 = 1
Conditions	mass density [kg/m3]	viscosity [mPa·s]
298.15 K	–	16.87
303.15 K	1106	13.59
308.15 K	–	11.34

CC(O)CO (stereo not given) [1,2-propanediol] + OCCO
[2]
Conditions	mass density, 298.15 K [kg/m3]	mass density, 303.15 K [kg/m3]	mass density, 308.15 K [kg/m3]	viscosity, 298.15 K [mPa·s]	viscosity, 303.15 K [mPa·s]	viscosity, 308.15 K [mPa·s]
x2 = 0	1032.7	1028.8	1025.2	44.78	33.75	27
x2 = 0.1208	1041	1036.9	1033.3	42.41	32.1	25.65
x2 = 0.2353	1048.6	1044.6	1041	40.03	30.14	24.13
x2 = 0.3454	1056.1	1052.1	1048.5	37.28	28.08	22.51
x2 = 0.4345	1062.3	1058.4	1054.7	34.74	26.24	21.05
x2 = 0.5508	1070.8	1066.9	1063.4	31.35	23.8	19.11
x2 = 0.6303	1077	1073.1	1069.5	28.91	22.06	17.78
x2 = 0.7473	1086.6	1082.7	1079.2	25.33	19.52	15.82
x2 = 0.8302	1093.7	1089.8	1086.4	22.72	17.62	14.39
x2 = 0.9065	1100.6	1096.8	1093.4	20.16	15.86	13.07

OCCCO [propan-1,3-diol]
[1]
Conditions	mass density [kg/m3]	viscosity [mPa·s]
298.15 K	1049.6	41.36
303.15 K	1046.2	32.78
308.15 K	1043.1	26.34

CC(O)CO (stereo not given) [1,2-propanediol]
[1]
Conditions	mass density [kg/m3]	viscosity [mPa·s]
298.15 K	1032.7	44.78
303.15 K	1028.8	33.75
308.15 K	1025.2	27

OCCCO [propan-1,3-diol] + CC(O)CO
[2]
Conditions	mass density, 298.15 K [kg/m3]	mass density, 303.15 K [kg/m3]	mass density, 308.15 K [kg/m3]	viscosity, 298.15 K [mPa·s]	viscosity, 303.15 K [mPa·s]	viscosity, 308.15 K [mPa·s]
x2 = 0	1049.6	1046.2	1043.1	41.36	32.78	26.34
x2 = 0.1002	1049.1	1046	1043	41.77	32.93	26.45
x2 = 0.2105	1048.3	1045.6	1042.8	42.23	33.12	26.56
x2 = 0.2994	1047.8	1045.1	1042.2	42.59	33.26	26.66
x2 = 0.4088	1046.9	1044.1	1041	43.02	33.43	26.75
x2 = 0.5002	1045.9	1043	1039.9	43.38	33.56	26.84
x2 = 0.5937	1044.7	1041.7	1038.5	43.73	33.66	26.91
x2 = 0.7125	1042.6	–	–	44.08	33.73	26.94
x2 = 0.7126	–	1039.3	1036	–	–	–
x2 = 0.7996	1040.2	1036.7	1033.5	44.31	33.75	26.96
x2 = 0.9217	1036.5	1033	1029.7	44.62	33.76	26.99

OCCO [1,2-ethanediol] + OCCCO
[2], x1 = 1
Conditions	mass density [kg/m3]	viscosity [mPa·s]
298.15 K	–	16.87
303.15 K	1106	13.59
308.15 K	–	11.34
